This is an account of results in ChEMBL document CHEMBL1134954, “Synthesis and preliminary evaluation of trans-3,4-conformationally-restricted glutamate and pyroglutamate analogues as novel EAAT2 inhibitors” (2002).

What all share (format): functional
Holding throughout (parameters): scale not given: the % may be the effect or the level left

Assay [1] can be described thus: Potential inhibitory activity of EAAT3 by the ability (500 uM) to attenuate the Na-dependent uptake of [3H]D-aspartate (25 uM) into C6 rat glioma cells.
Another assay relates to SNB-19. In words: Inhibitory activity (500 uM) against Cl-dependent uptake of [3H]L-glutamate (100 uM) into SNB-19 human astrocytoma cells to determine activity at system Xc glutamate/cystine exchanger.
Assay [2] is filed under the species Rattus norvegicus. In words: Inhibitory activity (250 uM) against ATP dependent uptake of [3H]L-glutamate (250 uM) by isolated synaptic vesicles from rat forebrain to quantify activity at vesicular glutamate transporter.
Assay [3] is filed under the species Rattus norvegicus. Kind of assay: Potential inhibitory activity of EAAT2 by the ability (250 uM) to attenuate the Na-dependent uptake of [3H]D-aspartate (5 uM) into synaptosomes of rat forebrain. The conditions noted are these: Brain.

As for `CC1=C(C)C[C@H]2C(C(=O)O)NC(=O)[C@@H]2C1` (stereo partly specified), the Activity worked out at 97% in assay [1], 103% with SNB-19, 96% in the assay listed under Rattus norvegicus [2] and 77% in the assay listed under Rattus norvegicus [3].

Consider `O=C(O)C1NC(=O)[C@@H]2CC=CC[C@@H]12` (stereo partly specified), for which the Activity was determined as 93% in assay [1], 89% in the assay on SNB-19, 103% in the assay filed under Rattus norvegicus [2] and 53% in the assay listed under Rattus norvegicus [3].

On to `NC(C(=O)O)[C@@H]1CC=CC[C@H]1C(=O)O` (stereo partly specified), for which the Activity in assay [1] was found to be 95%; in the assay on SNB-19, 101%; in the assay filed under Rattus norvegicus [2], 85%; in the assay filed under Rattus norvegicus [3], 38%.

`NC(C(=O)O)[C@@H]1C2C=CC(C2)[C@H]1C(=O)O` (stereo partly specified): the Activity was found to be 87% in assay [1], 88% in the assay on SNB-19, 93% in the assay listed under Rattus norvegicus [2] and 35% in the assay listed under Rattus norvegicus [3].

With `NC(C(=O)O)[C@@H]1C2C=CC(CC2)[C@H]1C(=O)O` (stereo partly specified), the Activity in assay [1] was 97%; in the assay on SNB-19, 88%; in the assay listed under Rattus norvegicus [2] it was 104%; in the assay listed under Rattus norvegicus [3], 70%.

In the assay filed under Rattus norvegicus [3], `CC(C)[C@H]1CN[C@H](C(=O)O)[C@H]1CC(=O)O` gave an Activity of 22%.

Regarding `N[C@@H](CCC(=O)O)C(=O)O`, the Activity in the assay filed under Rattus norvegicus [3] turned out to be 28%.

As to `CC1=C(C)C[C@@H](C(N)C(=O)O)[C@H](C(=O)O)C1` (stereo partly specified), the Activity stood at 100% in assay [1], 104% in the assay on SNB-19, 99% in the assay listed under Rattus norvegicus [2] and 71% in the assay filed under Rattus norvegicus [3].
